Reference: patent US7510836B2, “Alpha arteether resistance domain” (priority 2003, dated 2009)

Legend:
E. coli DH5α = assay: Phenotype of strain (resistance or sensitivity); format: cell-based, Escherichia coli; parameters: key to Phenotype: R: resistance; S: sensitivity; details: for Sensitivity or resistance of the strain (words): E.coli DH5a (gyrA 96; Asp87Asn)
Experimental: (§1) As a result of this mutation, the said strain is also resistant to a drug called nalidixic acid.
(§2) To ascertain the involvement of gyrA mutation, another E.coli strain NK 5819 which is also GyrA″ and nalidixic acid resistant was tested for arteether sensitivity. As expected, strain NK5819 was also sensitive only to a-isomer of arteether. […] The assays for arteether sensitivity was performed by the standard single disk diffusion method (Bauer et al, 1966). As a next step, we isolated gyrA mutants of E.coli strain CA 8000, which is otherwise Gyr+ and nalidixic acid sensitive. The gyrA mutants of CA8000 were isolated as nalidixic acid resistant colonies (20 ug/ml), after mutagenic treatment with NTG ([…]). The isolated CA8000 gyrA mutants were also sensitive only to a isomer of arteether. […] To define precisely the involvement of gyr genes only in the a-arteether sensitivity, we utilised two recombinant clones (pMK 90 and pMK47 containing functional gyr A and gyrB genes respectively) in trans-complementation assays. For this purpose, we mobilized the plasmid clones into the E.coli gyr mutant strains. The resulting transformants were now nalidixic acid sensitive and a-arteether resistant. This constituted the direct evidence supporting our observation that DNA gyrase enzyme alone is involved in conferring a-arteether sensitivity to E.coli strain. […] DNA gyrase enzyme is essential for the bacterial growth. This enzyme transiently breaks the DNA strands and introduces negative superhelical turns in an ATP-dependent process. The E.coli DNA gyrase enzyme is a tetramer with two subunits A and B. These two subunits are nalidixic acid and coumermycin sensitive respectively (U.S. Pat. No. 6,127,405 and a co-pending patent).
(§3) The strains of E coli of the investigation, their phenotypes in terms of a-arteether (resistance or sensitivity, superscript R or S) or antibiotic resistance or sensitivity, change in nucleotide position of the gyrase A gene leading to the phenotype, corresponding amino acid change in the protein and the position of amino acid change are being described. Always the phenotype a-arteether resistance is accompanied with quinolone or fluoroquinolone sensitivity and vice versa.

[1] = tested on: E.coli strain MTCC 482 (GyrB, defective in DNA gyrase B subunit); assay: Arteether sensitivity, single disk diffusion; format: cell-based, Escherichia coli; details: E.coli MTCC 482 (gyrB)
Experimental: as §2, with “This enzyme transiently breaks the DNA strands and introduces negative superhelical turns in an ATP-dependent process. The E.coli DNA gyrase enzyme is a tetramer with two subunits A and B. These two subunits are nalidixic acid and coumermycin sensitive respectively (U.S. Pat. No. 6,127,405 and a co-pending patent).” left out

[2] = tested on: gyrA mutants of E.coli strain CA 8000 (nalidixic acid resistant colonies after NTG); assay: Arteether sensitivity, single disk diffusion; format: cell-based, Escherichia coli; details: isolated CA8000 gyrA mutants
Experimental: as §2, with “This enzyme transiently breaks the DNA strands and introduces negative superhelical turns in an ATP-dependent process. The E.coli DNA gyrase enzyme is a tetramer with two subunits A and B. These two subunits are nalidixic acid and coumermycin sensitive respectively (U.S. Pat. No. 6,127,405 and a co-pending patent).” left out

E. coli NK5819 = assay: Phenotype of strain (resistance or sensitivity); format: cell-based, Escherichia coli; parameters: key to Phenotype: R: resistance; S: sensitivity
Experimental: as §2, §3

[3] = tested on: gyr mutant strains of E.coli; details: U.S. Pat. No. 6,127,405; cited from earlier work
[4] = tested on: E.coli strains which do not carry gyr mutation (wild type strains); details: U.S. Pat. No. 6,127,405; cited from earlier work
E. coli CA8005 = assay: Phenotype of strain (resistance or sensitivity); format: cell-based, Escherichia coli; parameters: key: R: resistance; S: sensitivity; details: gyrA GAC-GGC(260), Asp-Gly 87
From the text: (§4) In order to develop an arteether resistant mutants from an arteether sensitive strains a reverse strategy was applied. Quinoline/fluoroquinolone (Q/FQs) resistant strains were developed spontaneously i.e. screening overnight log phase culture of the Quinolone/fluoroquinolone sensitive i.e. arteether resistant strain (E coli CA 8000) on the poison agar plate of the Q/FQs. The Q/FQ resistant mutants which appeared on the poison agar plates were first purified through single colony purification and then checked for their arteether sensitivity. These arteether sensitive mutants on the contrary when checked for their Q/Fqs resistance they show different level of Q/FQs resistance.
as §3

E. coli CA8007 = assay: Phenotype of strain (resistance or sensitivity); format: cell-based, Escherichia coli; parameters: key: R: resistance; S: sensitivity; details: gyrA TCG-TTG(248), Ser-Leu 83
From the text: as §4, §3

E. coli CA8002 = assay: Phenotype of strain (resistance or sensitivity); format: cell-based, Escherichia coli; parameters: key: R: resistance; S: sensitivity; details: gyrA GGT-TGT(241), Gly-Cys 81
From the text: as §4, §3

E. coli CA8001 = assay: Phenotype of strain (resistance or sensitivity); format: cell-based, Escherichia coli; parameters: key: R: resistance; S: sensitivity; details: gyrA GGT-TGT(241), Gly-Cys 81
From the text: as §4, §3

E. coli CA8010 = assay: Phenotype of strain (resistance or sensitivity); format: cell-based, Escherichia coli; parameters: key: R: resistance; S: sensitivity; details: gyrA TCG-TTG(248), Ser-Leu 83
From the text: as §4, §3

E. coli CA8003 = assay: Phenotype of strain (resistance or sensitivity); format: cell-based, Escherichia coli; parameters: key: R: resistance; S: sensitivity; details: gyrA GAC-GGC(260), Asp-Gly 87
From the text: as §4, §3

E. coli CA8006 = assay: Phenotype of strain (resistance or sensitivity); format: cell-based, Escherichia coli; parameters: key: R: resistance; S: sensitivity; details: gyrA TCG-TTG(248), Ser-Leu 83
From the text: as §4, §3

E. coli CA8009 = assay: Phenotype of strain (resistance or sensitivity); format: cell-based, Escherichia coli; parameters: key: R: resistance; S: sensitivity; details: gyrA TCG-TTG(248), Ser-Leu 83
From the text: as §4, §3

E. coli CA8012 = assay: Phenotype of strain (resistance or sensitivity); format: cell-based, Escherichia coli; parameters: key: R: resistance; S: sensitivity; details: gyrA GGT-GAT(242), Gly-Asp 81
From the text: as §4, §3

E. coli ET8000 = assay: Phenotype of strain (resistance or sensitivity); format: cell-based, Escherichia coli; parameters: key: R: resistance; S: sensitivity; details: gyrA GAC-AAC(259), Asp-Asn 87
From the text: as §3

[5] = tested on: E.coli gyr mutant strains transformed with pMK 90 and pMK47 (functional gyr A and gyrB genes); assay: Trans-complementation assay; format: cell-based, Escherichia coli; details: gyr mutant strains carrying pMK 90 / pMK47
Experimental: as §2, with “This enzyme transiently breaks the DNA strands and introduces negative superhelical turns in an ATP-dependent process. The E.coli DNA gyrase enzyme is a tetramer with two subunits A and B. These two subunits are nalidixic acid and coumermycin sensitive respectively (U.S. Pat. No. 6,127,405 and a co-pending patent).” left out

[6] = tested on: E.coli strains which do not carry gyr mutation (wild type strains); assay: Arteether sensitivity of strains without gyr mutation; format: cell-based, Escherichia coli
Experimental: as §1
To ascertain the involvement of gyrA mutation, another E.coli strain NK 5819 which is also GyrA″ and nalidixic acid resistant was tested for arteether sensitivity. As expected, strain NK5819 was also sensitive only to a-isomer of arteether. […] The assays for arteether sensitivity was performed by the standard single disk diffusion method (Bauer et al, 1966). As a next step, we isolated gyrA mutants of E.coli strain CA 8000, which is otherwise Gyr+ and nalidixic acid sensitive. The gyrA mutants of CA8000 were isolated as nalidixic acid resistant colonies (20 ug/ml), after mutagenic treatment with NTG ([…]). The isolated CA8000 gyrA mutants were also sensitive only to a isomer of arteether. […] To define precisely the involvement of gyr genes only in the a-arteether sensitivity, we utilised two recombinant clones (pMK 90 and pMK47 containing functional gyr A and gyrB genes respectively) in trans-complementation assays. For this purpose, we mobilized the plasmid clones into the E.coli gyr mutant strains. The resulting transformants were now nalidixic acid sensitive and a-arteether resistant. This constituted the direct evidence supporting our observation that DNA gyrase enzyme alone is involved in conferring a-arteether sensitivity to E.coli strain. […]

[7] = tested on: E. coli mutant strain Rev 5; assay: Phenotype of revertant (resistance or sensitivity); format: cell-based, Escherichia coli; parameters: key: R: resistance; S: sensitivity; details: gyrA GAT-GGT(242), Asp-Gly 81
From the text: as §3
(§5) The commercially available strain E. coli DH5[…] (Stratagene, USA) is sensitive to […]-arteether but resistant to quinolone/fluoroquinolone due to a mutation at 87th aminoacid position of the gyr A protein (Aspartic acid of wild type is changed to Aspargine) with corresponding change in the codon GAC to AAC. This strain was used to screen […]-arteether resistant mutations. The observation was startling as the […]-arteether resistant mutants are the exact reversion at the 87th position of the aminoacid of gyrase A subunit i.e. Aspargine changed to aspartic acid, with corresponding change in the codon AAC to GAC.

[8] = tested on: E. coli mutant strain Rev. 1; assay: Phenotype of revertant (resistance or sensitivity); format: cell-based, Escherichia coli; parameters: key: R: resistance; S: sensitivity; details: gyrA GAT-GGT(242), Asp-Gly 81
From the text: as §3, §5

[9] = tested on: E. coli mutant strain Rev. 3; assay: Phenotype of revertant (resistance or sensitivity); format: cell-based, Escherichia coli; parameters: key: R: resistance; S: sensitivity; details: gyrA GAT-GGT(242), Asp-Gly 81
From the text: as §3, §5

[10] = tested on: E. coli mutant strain AR 9 CA8014; assay: Phenotype of revertant (resistance or sensitivity); format: cell-based, Escherichia coli; parameters: key: R: resistance; S: sensitivity; details: gyrA AAC-GAC(259), Asn-Asp 87
From the text: as §3, §5

[11] = tested on: E. coli mutant strain Rev 4; assay: Phenotype of revertant (resistance or sensitivity); format: cell-based, Escherichia coli; parameters: key: R: resistance; S: sensitivity; details: gyrA GAT-GGT(242), Asp-Gly 81
From the text: as §3, §5

[12] = tested on: E. coli mutant strain Rev. 2; assay: Phenotype of revertant (resistance or sensitivity); format: cell-based, Escherichia coli; parameters: key: R: resistance; S: sensitivity; details: gyrA GAT-GGT(242), Asp-Gly 81
From the text: as §3, §5

[13] = tested on: E. coli mutant strain Rev 6; assay: Phenotype of revertant (resistance or sensitivity); format: cell-based, Escherichia coli; parameters: key: R: resistance; S: sensitivity; details: gyrA GAT-GGT(242), Asp-Gly 81
From the text: as §3, §5

CCO[C@@H]1O[C@@H]2O[C@]3(C)CC[C@H]4[C@H](C)CC[C@@H]([C@H]1C)[C@@]24OO3 [a-arteether, α-arteether]
Phenotype (E. coli DH5α; DH5α, gyrA GAC-AAC(259), Asp-Asn 87): S
Sensitivity or resistance of the strain (words) (E. coli DH5α; listed as a isomer of arteether): able to inhibit the growth
Sensitivity or resistance of the strain (words) (E. coli DH5α; listed as α-arteether): sensitive
Sensitivity or resistance of the strain (words) (E. coli DH5α; listed as […]-arteether): sensitive
Arteether sensitivity [1]: susceptible
Arteether sensitivity [2]: sensitive
Sensitivity or resistance of the strain (words) (E. coli NK5819; E.coli NK 5819 (GyrA mutant)): sensitive
Phenotype (E. coli NK5819; NK5819, gyrA GAC-TAC(259), Asp-Gly 87): S
Inhibitory activity [3]: inhibitory
Inhibitory activity [4]: ineffective
Phenotype (E. coli CA8005): S
Phenotype (E. coli CA8007): S
Phenotype (E. coli CA8002): S
Phenotype (E. coli CA8001): S
Phenotype (E. coli CA8010): S
Phenotype (E. coli CA8003): S
Phenotype (E. coli CA8006): S
Phenotype (E. coli CA8009): S
Phenotype (E. coli CA8012): S
Phenotype (E. coli ET8000): S
Sensitivity or resistance of transformants [5]: resistant
Sensitivity or resistance [6]: invariably resistant
Phenotype [7]: R
Phenotype [8]: R
Phenotype [9]: R
Phenotype [10]: R
Phenotype [11]: R
Phenotype [12]: R
Phenotype [13]: R
